Laboratory results published in publication PMC11232110 (RSC Advances, 2024).

Biological target: enoyl acyl carrier protein reductase (InhA) (Mycobacterium tuberculosis, UniProt P9WGR1)
Test: InhA enzyme inhibition assay
Format: biochemical

enoyl acyl carrier protein reductase (InhA), sequence (P9WGR1 whole entry, looked up): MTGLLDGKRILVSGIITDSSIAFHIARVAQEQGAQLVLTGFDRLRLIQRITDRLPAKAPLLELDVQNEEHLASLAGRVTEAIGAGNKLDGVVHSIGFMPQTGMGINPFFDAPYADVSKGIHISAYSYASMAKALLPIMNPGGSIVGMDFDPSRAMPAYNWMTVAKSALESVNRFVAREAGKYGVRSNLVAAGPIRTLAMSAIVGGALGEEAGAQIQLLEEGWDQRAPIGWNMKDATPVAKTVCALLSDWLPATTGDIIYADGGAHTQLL

`O=c1cc(-c2ccccc2)c2cc(Cl)c(OCc3nnn(CCN4CCOCC4)n3)cc2o1` [4c, 7-((2-(2-Morpholinoethyl)-2H-tetrazol-5-yl)methoxy)-6-chloro-4-phenyl-2H-chromen-2-one] showed an IC50 of 565 ± 20 nM.
